In patent US20140011853A1, “SUBSTITUTED 3-(BIPHENYL-3-YL)-8,8-DIFLUORO-4-HYDROXY-1-AZASPIRO[4.5]DEC-3-EN-2-ONES FOR THERAPY” (BAYER INTELLECTUAL PROPERTY GMBH, priority 2011, published 2014):
Values joined by “and” are separate entries in the source; they are usually repeats but may differ in a detail not shown here. Equal entries are not always repeated.

Assays:
[1] = test system: Phaedon cochleariae; test: Phaedon test (PHAECO spray treatment); details: for effect (kill of beetle larvae): 500 g/ha, after 7 days
[2] = test system: Tetranychus urticae; test: Tetranychus test, OP-resistant (TETRUR spray treatment); format: in vivo; details: for pest or weed control at 100 g/ha / effect (kill of spider mites): after 6 days; for pest or weed control at 100 g/ha: read-out: effect (kill of spider mites)
[3] = test system: Spodoptera frugiperda; test: Spodoptera frugiperda test (SPODFR spray treatment); format: in vivo; details: 500 g/ha, after 7 days
[4] = test system: Myzus persicae; test: Myzus test (MYZUPE spray treatment); format: in vivo; details: for pest or weed control at 500 g/ha / effect (kill of aphids): after 6 days, 500 g/ha; for pest or weed control at 500 g/ha: read-out: effect (kill of aphids)
Text: Disks of Chinese cabbage (Brassica pekinensis) infested by all stages of the green peach aphid (Myzus persicae) are sprayed with an active compound formulation of the desired concentration.

[5] = test system: KM12; test: Tumour cell proliferation, CellTiter-Glo, 96-hour incubation, KM12; format: cell-based; details: Homo sapiens, KM12, 96 h; read-out: KM12 IC50
Method: (§1) In accordance with the invention, the substances were tested in cell-based assays for the ability of the substances of inhibiting tumour cell proliferation after a 96-hour incubation with the substance. Cell viability was tested using the CellTiter-Glo® luminescent cell viability assay (Promega). The cells were sown at a density of 2000-5000 cells/well (depending on the cell line) in 100 μl growth medium on 96-well microtiter plates. For each cell line examined, cells were sown on a separate plate to determine the luminescence at t=0 hours and t=96 hours. After overnight incubation at 37° C., the luminescence values for the t=0 samples were determined. The dose plates for the t=96 hours points in time were treated with substances diluted with growth medium. The cells were then incubated at 37° C. for 96 hours, and the luminescence values for the t=96 hours samples were then determined. For data analysis, the t=0 values were subtracted from the t=96 hours values for treated and untreated samples. The differences in luminescence in percent between substance-treated samples and control values were used to determine the growth inhibition in percent.
(§2) The substances were tested in the following cell lines which represent the stated indications in an exemplary manner: […]

[6] = target: T1, human ACC1 (Homo sapiens, UniProt Q13085); test: Human ACC1 enzyme assay (ADP-Glo); format: biochemical; details: individual measurements; read-out: ACC 1 IC50
T1 construct: FLAG (C); made in house; host or cells: baculovirus-infected insect cells (Hi5)

[7] = test system: human ACC1; test: Human ACC1 enzyme assay (ADP-Glo); format: biochemical; details: for Ratio of IC50s ACC2/ACC1 (respective measurement): pairwise, same dilution series
[8] = test system: MCF7; test: Tumour cell proliferation, CellTiter-Glo, 96-hour incubation, MCF7; format: cell-based; details: Homo sapiens, MCF7, 96 h; read-out: MCF7 IC50
Method: as §1, §2

[9] = target: human ACC2 (Homo sapiens, UniProt O00763); test: Human ACC2 enzyme assay (ADP-Glo); details: ACC 2 IC50, individual measurements
human ACC2, sequence (O00763 27-2458 limits assumed): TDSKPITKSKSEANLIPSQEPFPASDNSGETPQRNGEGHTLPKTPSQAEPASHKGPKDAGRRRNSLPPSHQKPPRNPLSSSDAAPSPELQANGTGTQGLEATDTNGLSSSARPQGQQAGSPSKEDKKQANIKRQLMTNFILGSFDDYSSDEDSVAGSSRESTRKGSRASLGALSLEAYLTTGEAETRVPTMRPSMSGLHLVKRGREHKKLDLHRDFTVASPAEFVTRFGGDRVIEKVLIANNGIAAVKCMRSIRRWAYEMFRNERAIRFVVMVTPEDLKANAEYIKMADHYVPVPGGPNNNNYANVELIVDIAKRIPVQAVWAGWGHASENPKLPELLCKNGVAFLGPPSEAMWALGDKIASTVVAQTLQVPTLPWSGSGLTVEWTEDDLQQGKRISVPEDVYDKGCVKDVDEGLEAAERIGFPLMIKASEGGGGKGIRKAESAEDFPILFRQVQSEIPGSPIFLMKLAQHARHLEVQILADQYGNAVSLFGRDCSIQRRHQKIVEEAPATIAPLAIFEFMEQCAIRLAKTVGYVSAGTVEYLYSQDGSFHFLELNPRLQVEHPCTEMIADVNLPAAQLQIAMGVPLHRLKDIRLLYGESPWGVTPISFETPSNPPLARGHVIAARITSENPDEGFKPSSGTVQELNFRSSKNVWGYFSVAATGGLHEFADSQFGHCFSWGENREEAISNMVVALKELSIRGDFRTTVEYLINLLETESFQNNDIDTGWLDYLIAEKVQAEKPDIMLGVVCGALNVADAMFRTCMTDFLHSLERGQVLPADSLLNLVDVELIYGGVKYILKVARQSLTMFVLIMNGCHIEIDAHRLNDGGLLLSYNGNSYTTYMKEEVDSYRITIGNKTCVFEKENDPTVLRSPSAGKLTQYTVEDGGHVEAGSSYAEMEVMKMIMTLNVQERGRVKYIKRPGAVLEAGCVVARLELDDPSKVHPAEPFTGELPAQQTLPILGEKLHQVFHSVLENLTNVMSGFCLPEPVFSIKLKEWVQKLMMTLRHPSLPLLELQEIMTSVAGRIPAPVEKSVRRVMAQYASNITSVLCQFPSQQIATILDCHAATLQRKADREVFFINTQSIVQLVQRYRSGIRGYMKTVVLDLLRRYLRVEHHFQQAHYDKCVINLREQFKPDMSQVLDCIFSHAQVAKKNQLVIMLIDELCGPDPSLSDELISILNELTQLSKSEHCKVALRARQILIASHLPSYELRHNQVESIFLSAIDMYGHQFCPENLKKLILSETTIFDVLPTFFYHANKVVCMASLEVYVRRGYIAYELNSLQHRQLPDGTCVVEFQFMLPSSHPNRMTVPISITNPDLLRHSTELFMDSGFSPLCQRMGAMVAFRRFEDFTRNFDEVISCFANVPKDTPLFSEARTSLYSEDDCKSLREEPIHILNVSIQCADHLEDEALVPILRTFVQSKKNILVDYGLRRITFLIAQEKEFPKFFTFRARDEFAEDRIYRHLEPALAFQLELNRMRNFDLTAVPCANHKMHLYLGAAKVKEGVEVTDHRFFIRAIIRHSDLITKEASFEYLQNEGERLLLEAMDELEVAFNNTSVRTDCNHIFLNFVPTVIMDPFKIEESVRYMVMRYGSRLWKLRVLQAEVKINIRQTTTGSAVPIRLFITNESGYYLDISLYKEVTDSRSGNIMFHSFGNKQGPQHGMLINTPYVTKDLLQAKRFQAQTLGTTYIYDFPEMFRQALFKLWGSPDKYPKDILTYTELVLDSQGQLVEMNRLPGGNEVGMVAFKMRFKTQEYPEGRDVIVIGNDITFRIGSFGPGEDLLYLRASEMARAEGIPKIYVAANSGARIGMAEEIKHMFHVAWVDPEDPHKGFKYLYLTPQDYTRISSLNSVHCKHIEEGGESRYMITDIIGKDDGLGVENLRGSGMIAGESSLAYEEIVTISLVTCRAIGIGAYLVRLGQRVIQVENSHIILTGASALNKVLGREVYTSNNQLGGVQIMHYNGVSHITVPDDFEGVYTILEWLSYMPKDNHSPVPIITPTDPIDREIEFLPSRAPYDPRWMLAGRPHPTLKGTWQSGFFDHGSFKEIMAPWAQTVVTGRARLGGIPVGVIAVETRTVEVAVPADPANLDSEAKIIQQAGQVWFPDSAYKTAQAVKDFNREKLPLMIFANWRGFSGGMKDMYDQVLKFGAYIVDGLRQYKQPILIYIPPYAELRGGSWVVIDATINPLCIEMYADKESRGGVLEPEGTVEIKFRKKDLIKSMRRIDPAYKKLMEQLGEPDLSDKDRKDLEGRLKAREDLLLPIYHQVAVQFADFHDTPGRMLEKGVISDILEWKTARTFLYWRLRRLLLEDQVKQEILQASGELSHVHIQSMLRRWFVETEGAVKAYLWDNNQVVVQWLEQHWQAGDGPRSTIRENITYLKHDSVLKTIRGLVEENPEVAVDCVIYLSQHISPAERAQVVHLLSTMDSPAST

[10] = test system: H460; test: Tumour cell proliferation, CellTiter-Glo, 96-hour incubation, H460; format: cell-based; details: Homo sapiens, NCI-H460, 96 h; read-out: H460 IC50
Method: as §1, §2

[11] = test system: PC3; test: Tumour cell proliferation, CellTiter-Glo, 96-hour incubation, PC3; format: cell-based; details: Homo sapiens, PC-3, 96 h; read-out: PC3 IC50
Method: as §1, §2

[12] = Tetranychus urticae, 144 h, 100 g/ha

Compound	effect (kill of beetle larvae) [1]	pest or weed control at 100 g/ha [2, 12]	effect (kill of caterpillars) [3]	pest or weed control at 500 g/ha ([4]; Myzus persicae, 144 h)	effect (kill of aphids) [4]	further results
Cc1ccc(-c2ccc(F)cc2)cc1C1=C(O)C2(CCC(F)(F)CC2)NC1=O [Example 1-3, 8,8-Difluoro-3-(4′-fluoro-4-methylbiphenyl-3-yl)-4-hydroxy-1-azaspiro[4.5]dec-3-en-2-one]	100%	100%	100%	90%	–	IC50 [5]: 0.578 µM; IC50 [6]: 0.166 µM and 0.241 µM; Selectivity ACC1 vs. ACC2 (mean of the individual measurements ± standard deviation) [7]: >101.8 ± 19.0; Ratio of IC50s ACC2/ACC1 (respective measurement) [7]: >120.8 and >82.8; IC50 [8]: 0.209 µM; IC50 [9]: > 20 µM; IC50 [10]: 0.678 µM; IC50 [11]: 0.476 µM
O=C1NC2(CCC(F)(F)CC2)C(O)=C1c1cc(-c2ccc(Cl)cc2)ccc1Cl [Example 1-4, 3-(4,4′-Dichlorobiphenyl-3-yl)-8,8-difluoro-4-hydroxy-1-azaspiro[4.5]dec-3-en-2-one]	100%	90%	100%	90%	–	IC50 [5]: 0.319 µM; IC50 [6]: 0.121 µM and 0.091 µM; Selectivity ACC1 vs. ACC2 (mean of the individual measurements ± standard deviation) [7]: 39.7 ± 5.7; Ratio of IC50s ACC2/ACC1 (respective measurement) [7]: 45.5 and 34.0; IC50 [8]: 0.086 µM; IC50 [9]: 5.48 µM and 3.11 µM; IC50 [10]: 0.481 µM; IC50 [11]: 0.231 µM
Cc1cc(C)c(C2=C(O)C3(CCC(F)(F)CC3)NC2=O)c(C)c1 [Example I-1-a-1]	–	100%	83%	100%	–	–
Cc1cc(Br)cc(C)c1C1=C(O)C2(CCC(F)(F)CC2)NC1=O [Example I-1-a-5]	100%	–	–	–	100%	effect (kill of spider mites) ([2]; 100 g/ha): 100%
Cc1cc(Cl)cc(C)c1C1=C(O)C2(CCC(F)(F)CC2)NC1=O [Example I-1-a-7]	100%	–	–	–	100%	effect (kill of spider mites) ([2]; 100 g/ha): 100%
Cc1cc(OCC(F)(F)F)cc(C)c1C1=C(O)C2(CCC(F)(F)CC2)NC1=O [Example I-1-a-8]	100%	100%	–	100%	–	–
Cc1cc(-c2ccc(Cl)cc2)cc(C)c1C1=C(O)C2(CCC(F)(F)CC2)NC1=O [Example I-1-a-9]	100%	100%	–	100%	–	–
CCc1cc(C)cc(C)c1C1=C(O)C2(CCC(F)(F)CC2)NC1=O [Example I-1-a-11]	–	–	–	–	–	effect (kill of spider mites) ([2]; 100 g/ha): 100%
Cc1ccc(-c2ccc(F)cc2)c(C)c1C1=C(O)C2(CC=C(F)CC2)NC1=O (stereo not shown) [Example I-1-a-12]	100%	–	100%	–	100%	effect (kill of spider mites) ([2]; 500 g/ha): 100%
Cc1cc(Cl)cc(C)c1C1=C(O)C2(CC=C(F)CC2)NC1=O (stereo not shown) [Example I-1-a-13]	100%	–	–	–	100%	effect (kill of spider mites) ([2]; 100 g/ha): 90%
Cc1ccc(Br)cc1C1=C(O)C2(CCC(F)(F)CC2)NC1=O [Example I-1-a-14, 3-(5-Bromo-2-methylphenyl)-8,8-difluoro-4-hydroxy-1-azaspiro[4.5]dec-3-en-2-one]	–	–	–	100%	–	–
CCc1cc(C)cc(C)c1C1=C(OC(=O)C(C)C)C2(CCC(F)(F)CC2)NC1=O [Example I-1-b-1]	–	100%	–	100%	–	–
CCOC(=O)OC1=C(c2c(C)cc(C)cc2CC)C(=O)NC12CCC(F)(F)CC2 [Example I-1-c-1]	–	100%	–	90%	–	–
Cc1cc(C)c(C2=C(O)C3(CCC(F)(F)CC3)OC2=O)cc1C [Example I-2-a-1]	–	–	–	100%	–	–
Cc1ccc(-c2ccc(F)cc2)c(C)c1C1=C(O)C2(CCC(F)(F)CC2)OC1=O [Example I-2-a-2]	100%	–	100%	–	100%	effect (kill of spider mites) ([2]; 500 g/ha): 100%
Cc1ccc(-c2ccc(Cl)cc2)cc1C1=C(O)C2(CCC(F)(F)CC2)OC1=O [Example I-2-a-3]	100%	–	100%	–	90%	–
Cc1cc(C)c(C2=C(O)C3(CCC(F)(F)CC3)OC2=O)c(C)c1 [Example I-2-a-4]	100%	–	–	–	100%	–
Cc1cc(C)c(C2=C(OC(=O)C(C)C)C3(CCC(F)(F)CC3)OC2=O)cc1C [Example I-2-b-1]	–	–	83%	100%	–	–
Cc1ccc(-c2ccc(F)c(F)c2)cc1C1=C(O)C2(CCCCC2)NC1=O [prior art WO 2008/067911 Table 1, reference compound]	–	–	–	–	–	inhibition at 20 g/ha ([1]; Phaedon cochleariae, 168 h, read-out: % activity PHAECO): 0%; inhibition at 20 g/ha ([2]; Tetranychus urticae, 144 h, read-out: % activity TETRUR): 0%; inhibition at 20 g/ha ([4]; Myzus persicae, 144 h, read-out: % activity MYZUPE): 0%
